Data from PubChem BioAssay (NCI).
Where “and” joins values, the source holds several entries; their conditions need not be identical. Identical values can stand only once.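 Compound exposure: 48 hours, 5 concentrations, 96-well plates. Here, GI50 denotes the concentration required for 50% inhibition of growth. The concentration for full growth arrest is given as TGI.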

What was measured:
Experiment in all cases: NCI-60 cell line screen, 48 h
[1] = tested on: LOX IMVI melanoma
[2] = tested on: OVCAR-3 ovarian
[3] = tested on: PC-3 prostate
[4] = tested on: HT29 colon
[5] = tested on: SF-295 CNS
[6] = tested on: K-562 leukemia
[7] = tested on: HCT-116 colon
[8] = tested on: U251 CNS
[9] = tested on: SK-MEL-2 melanoma
[10] = tested on: IGROV1 ovarian
[11] = tested on: A498 renal
[12] = tested on: DU-145 prostate
[13] = tested on: BT-549 breast
[14] = tested on: 786-0 renal
[15] = tested on: SNB-75 CNS
[16] = tested on: HOP-92 NSCLC
[17] = tested on: HCT-15 colon
[18] = tested on: SK-MEL-28 melanoma
[19] = tested on: KM12 colon
[20] = tested on: OVCAR-4 ovarian
[21] = tested on: HCC-2998 colon
[22] = tested on: SK-MEL-5 melanoma
[23] = tested on: SNB-19 CNS
[24] = tested on: OVCAR-8 ovarian
[25] = tested on: NCI-H23 lung
[26] = tested on: MCF7 breast
[27] = tested on: MOLT-4 leukemia
[28] = tested on: T-47D breast
[29] = tested on: CCRF-CEM leukemia
[30] = tested on: MDA-MB-231 breast
[31] = tested on: HL-60(TB) leukemia
[32] = tested on: ACHN renal
[33] = tested on: SR leukemia
[34] = tested on: UO-31 renal
[35] = tested on: NCI-H226 lung
[36] = tested on: SF-539 CNS
[37] = tested on: SN12C renal
[38] = tested on: HS 578T breast
[39] = tested on: COLO 205 colon
[40] = tested on: RPMI-8226 leukemia
[41] = tested on: MALME-3M melanoma
[42] = tested on: UACC-62 melanoma
[43] = tested on: HOP-62 NSCLC
[44] = tested on: CAKI-1 renal
[45] = tested on: TK-10 renal
[46] = tested on: SF-268 CNS
[47] = tested on: A549 NSCLC
[48] = tested on: MDA-MB-435
[49] = tested on: NCI/ADR-RES ovarian
[50] = tested on: SW-620 colon
[51] = tested on: NCI-H460 lung
[52] = tested on: M14 melanoma
[53] = tested on: OVCAR-5 ovarian
[54] = tested on: NCI-H522 lung
[55] = tested on: SK-OV-3 ovarian
[56] = tested on: RXF 393 renal
[57] = tested on: UACC-257 melanoma

For `O=C(COc1ccccc1)NNc1ccccc1`, the GI50 [1] was 12.3 µM and 12.2 µM, the TGI [1] was over 300 µM and the GI50 [2] was > 95.4 µM and 191 µM. The TGI [2] was over 300 µM, the GI50 [3] was 45.3 µM and 44.1 µM and the TGI [3] was over 300 µM. The GI50 [4] was 264 µM, the TGI [4] was over 300 µM and the GI50 [5] was 18.3 µM and 11.2 µM. For the same compound, the TGI [5] was over 300 µM, the GI50 [6] was 3.67 µM and 6.43 µM and the TGI [6] was over 300 µM. It also gave a GI50 [7] of 207 µM, a TGI [7] of over 300 µM and a GI50 [8] of 195 µM. The TGI [8] was over 300 µM, the GI50 [9] was 74.5 µM and the TGI [9] was over 300 µM. It also gave a GI50 [10] of over 300 µM, a TGI [10] of over 300 µM and a GI50 [11] of 87.7 µM. For the same compound, the TGI [11] was over 300 µM, the GI50 [12] was over 300 µM and the TGI [12] was over 300 µM. The GI50 [13] was 90.7 µM, the TGI [13] was over 300 µM and the GI50 [14] was > 68.5 µM and 66.1 µM. It also gave a TGI [14] of over 300 µM, a GI50 [15] of 60.8 µM and a TGI [15] of 251 µM. The GI50 [16] was 71 µM, the TGI [16] was 216 µM and the GI50 [17] was 8.88 µM and 12.3 µM. The TGI [17] was over 300 µM, the GI50 [18] was over 300 µM and the TGI [18] was over 300 µM. For the same compound, the GI50 [19] was 9.03 µM and 6.49 µM, the TGI [19] was over 300 µM and the GI50 [20] was over 300 µM. The TGI [20] was over 300 µM, the GI50 [21] was 27.2 µM and 26.6 µM and the TGI [21] was over 300 µM. For the same compound, the GI50 [22] was 46.2 µM and 104 µM, the TGI [22] was over 300 µM and the GI50 [23] was 234 µM. The TGI [23] was over 300 µM, the GI50 [24] was > 56.1 µM and 58.3 µM and the TGI [24] was over 300 µM. For the same compound, the GI50 [25] was over 300 µM, the TGI [25] was over 300 µM and the GI50 [26] was 47.8 µM and 38.8 µM. For the same compound, the TGI [26] was over 300 µM, the GI50 [27] was 25.5 µM and 16.3 µM and the TGI [27] was over 300 µM. For the same compound, the GI50 [28] was 35.2 µM and 19 µM, the TGI [28] was over 300 µM and the GI50 [29] was 8.18 µM. The GI50 [30] was 73.2 µM, the TGI [30] was over 300 µM and the GI50 [31] was 3.91 µM and 9.54 µM. The TGI [31] was over 300 µM, the GI50 [32] was 12.5 µM and 13.9 µM and the TGI [32] was over 300 µM. The GI50 [33] was > 26.3 µM and 6.77 µM, the TGI [33] was over 300 µM and the GI50 [34] was 10.3 µM and 20.1 µM. The TGI [34] was over 300 µM, the GI50 [35] was > 92.3 µM and 224 µM and the TGI [35] was over 300 µM. The GI50 [36] was 18.1 µM and 9.52 µM, the TGI [36] was 55.1 µM and 37.6 µM and the GI50 [37] was over 300 µM. For the same compound, the TGI [37] was over 300 µM, the GI50 [38] was 98.3 µM and the TGI [38] was over 300 µM. The GI50 [39] was 17.6 µM and 11.9 µM, the TGI [39] was > 86.6 µM and 197 µM and the GI50 [40] was 68.3 µM and 274 µM. The TGI [40] was over 300 µM, the GI50 [41] was 66.9 µM and 101 µM and the TGI [41] was over 300 µM. For the same compound, the GI50 [42] was 2.71 µM and 5 µM, the TGI [42] was > 79.5 µM and 91.2 µM and the GI50 [43] was 116 µM. For the same compound, the TGI [43] was over 300 µM, the GI50 [44] was 6.78 µM and 5.97 µM and the TGI [44] was > 80.2 µM and 182 µM. For the same compound, the GI50 [45] was over 300 µM, the TGI [45] was over 300 µM and the GI50 [46] was 140 µM. The TGI [46] was over 300 µM, the GI50 [47] was 60.4 µM and the GI50 [48] was 12.2 µM and 16.1 µM. The TGI [48] was over 300 µM, the GI50 [49] was 58.1 µM and 63.3 µM and the TGI [49] was over 300 µM. For the same compound, the GI50 [50] was 13.4 µM and 18.9 µM, the TGI [50] was over 300 µM and the GI50 [51] was 17.1 µM and 15.8 µM. For the same compound, the TGI [51] was over 300 µM, the GI50 [52] was 15.2 µM and 13.9 µM and the TGI [52] was 171 µM. The GI50 [53] was 144 µM, the TGI [53] was over 300 µM and the GI50 [54] was 7.79 µM. The GI50 [55] was 254 µM, the TGI [55] was over 300 µM and the GI50 [56] was 98.9 µM. The TGI [56] was over 300 µM.

Compound `COc1ccc(C(=O)/C=C/c2cc(-c3ccc(OC)c(OC)c3)n[nH]2)cc1OC` has a GI50 [1] of 1.29 µM, a TGI [1] of 2.7 µM and a GI50 [2] of 1.96 µM. The TGI [2] was 4.72 µM, the GI50 [3] was 1.98 µM and the TGI [3] was 35.7 µM. It also gave a GI50 [4] of 1.38 µM, a TGI [4] of 4.95 µM and a GI50 [5] of 1.6 µM. For the same compound, the TGI [5] was 5.05 µM, the GI50 [6] was 0.619 µM and the TGI [6] was over 100 µM. For the same compound, the GI50 [57] was 2.16 µM, the TGI [57] was 5.02 µM and the GI50 [8] was 1.2 µM. For the same compound, the TGI [8] was 2.63 µM, the GI50 [9] was 2.46 µM and the TGI [9] was 5.17 µM. For the same compound, the GI50 [10] was 3.13 µM, the TGI [10] was 53.8 µM and the GI50 [11] was 1.27 µM. For the same compound, the TGI [11] was 3.2 µM, the GI50 [12] was 1.64 µM and the TGI [12] was 4.8 µM. It also gave a GI50 [13] of 1.44 µM, a TGI [13] of 2.92 µM and a GI50 [14] of 1.81 µM. The TGI [14] was 5.14 µM, the GI50 [15] was 1.16 µM and the TGI [15] was 2.96 µM. The GI50 [16] was 1.97 µM, the TGI [16] was 8.12 µM and the GI50 [17] was 1.09 µM. For the same compound, the TGI [17] was 5.39 µM, the GI50 [18] was 1.82 µM and the TGI [18] was 4.82 µM. The GI50 [19] was 0.625 µM, the TGI [19] was 2.08 µM and the GI50 [20] was 1.92 µM. It also gave a TGI [20] of 8.15 µM, a GI50 [21] of 1.74 µM and a TGI [21] of 3.19 µM. For the same compound, the GI50 [22] was 1.58 µM, the TGI [22] was 2.96 µM and the GI50 [23] was 1.67 µM. It also gave a TGI [23] of 4.16 µM, a GI50 [24] of 2.63 µM and a TGI [24] of 22.4 µM. The GI50 [25] was 2.25 µM, the TGI [25] was 5.7 µM and the GI50 [26] was 0.937 µM. For the same compound, the TGI [26] was 8.02 µM, the GI50 [27] was 2.2 µM and the TGI [27] was over 100 µM. The GI50 [28] was 1.36 µM, the TGI [28] was 6.65 µM and the GI50 [29] was 0.364 µM. It also gave a TGI [29] of 5.52 µM, a GI50 [30] of 1.88 µM and a TGI [30] of 6.38 µM. For the same compound, the GI50 [31] was 2.76 µM, the TGI [31] was over 100 µM and the GI50 [32] was 1.59 µM. The TGI [32] was 3.83 µM, the GI50 [34] was 1.5 µM and the TGI [34] was 3.8 µM. It also gave a GI50 [35] of 1.66 µM, a TGI [35] of 4.23 µM and a GI50 [36] of 0.525 µM. It also gave a TGI [36] of 2.54 µM, a GI50 [37] of 1.92 µM and a TGI [37] of 4.82 µM. It also gave a GI50 [38] of 3.76 µM, a TGI [38] of over 100 µM and a GI50 [39] of 1.55 µM. It also gave a TGI [39] of 3.1 µM, a GI50 [40] of 0.357 µM and a TGI [40] of 2.26 µM. It also gave a GI50 [41] of 2.59 µM, a TGI [41] of 6.21 µM and a GI50 [43] of 1.73 µM. It also gave a TGI [43] of 5.6 µM, a GI50 [45] of 4.96 µM and a TGI [45] of 47.7 µM. For the same compound, the GI50 [46] was 2.09 µM, the TGI [46] was 9.82 µM and the GI50 [47] was 2.25 µM. It also gave a TGI [47] of 10.2 µM, a GI50 [49] of 3.43 µM and a TGI [49] of 33.1 µM. The GI50 [50] was 1.5 µM, the TGI [50] was 5.41 µM and the GI50 [51] was 0.606 µM. For the same compound, the TGI [51] was 4.36 µM, the GI50 [52] was 1.91 µM and the TGI [52] was 4.11 µM. It also gave a GI50 [53] of 1.76 µM, a TGI [53] of 5.24 µM and a GI50 [54] of 1.69 µM. It also gave a TGI [54] of 3.9 µM, a GI50 [55] of 3.13 µM and a TGI [55] of 33.3 µM. It also gave a GI50 [56] of 1.45 µM and a TGI [56] of 2.98 µM.
